Test results reported in PubChem BioAssay AID248 (DTP/NCI, 2004).
Toxic doses and inconclusive results are not listed.

Test system: L1210 leukemia ip in BDF1 mice, survival T/C
Assay: NCI In Vivo Anticancer Drug Screen. Data for tumor model L1210 Leukemia (intraperitoneal) in B6D2F1 (BDF1) mice
Conditions: endpoint: mean survival time, higher = longer survival
Outline: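 Tumor cells were implanted, animals were treated, and survival was followed. The result divides the treated measurement by the vehicle-control measurement.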

CC(C)(O)C(=NCc1ccccc1)c1ccccc1
T/C (dose: 75.0 mg/kg/injection, schedule: Q04DX003 (ip), vehicle: other): 97 % of control | T/C (dose: 150.0 mg/kg/injection, schedule: Q04DX003 (ip), vehicle: other): 92 % of control | T/C (dose: 300.0 mg/kg/injection, schedule: Q04DX003 (ip), vehicle: other): 98 % of control

CCS(=O)(=O)C1C2CCC(O2)C1S(=O)(=O)CC (stereo unspecified)
T/C (dose: 100.0 mg/kg/injection, schedule: Q04DX002 (ip), vehicle: Klucel (hydroxypropylcellulose) (HPC)): 94 % of control | T/C (dose: 200.0 mg/kg/injection, schedule: Q04DX002 (ip), vehicle: Klucel (hydroxypropylcellulose) (HPC)): 101 % of control | T/C (dose: 400.0 mg/kg/injection, schedule: Q04DX002 (ip), vehicle: Klucel (hydroxypropylcellulose) (HPC)): 90 % of control

CCCN=Cc1cc(Cl)ccc1O.CCCN=Cc1cc(Cl)ccc1O.[Ni]
T/C (dose: 100.0 mg/kg/injection, schedule: Q01DX008 (sc), vehicle: olive oil, sesame oil, peanut oil): 104 % of control | T/C (dose: 200.0 mg/kg/injection, schedule: Q01DX008 (sc), vehicle: olive oil, sesame oil, peanut oil): 98 % of control | T/C (dose: 400.0 mg/kg/injection, schedule: Q01DX008 (sc), vehicle: olive oil, sesame oil, peanut oil): 86 % of control

CC[C@@](O)(C(=O)NC)c1cc2n(c(=O)c1CO)Cc1cc3ccccc3nc1-2
T/C (dose: 2.3 mg/kg/injection, schedule: Q01DX015 (ip), vehicle: saline): 155 % of control | T/C (dose: 3.5 mg/kg/injection, schedule: Q01DX015 (ip), vehicle: saline): 172 % of control | T/C (dose: 4.0 mg/kg/injection, schedule: Q01DX001 (ip), vehicle: saline): 110 % of control | T/C (dose: 5.3 mg/kg/injection, schedule: Q01DX015 (ip), vehicle: saline): 102 % of control

O=C(CCN1CCCCC1)c1ccccc1
T/C (dose: 5.0 mg/kg/injection, schedule: Q04DX003 (ip), vehicle: saline): 96 % of control | T/C (dose: 10.0 mg/kg/injection, schedule: Q04DX003 (ip), vehicle: saline): 103 % of control | T/C (dose: 20.0 mg/kg/injection, schedule: Q04DX003 (ip), vehicle: saline): 94 % of control
